Positions of bridges follow the written chain, without caps; N, C: chain ends. Non-standard residues stand in square brackets, D forms with d. Residues, ends and D or L forms follow the SMILES beside them. *: point of attachment. Phe(3,4,5-F3) = N[C@@H](Cc1cc(F)c(F)c(F)c1)C(=O)O; Bip = N[C@@H](Cc1ccc(-c2ccccc2)cc1)C(=O)O; Phe(3-Br) = N[C@@H](Cc1cccc(Br)c1)C(=O)O; Phe(3-Me) = Cc1cccc(C[C@H](N)C(=O)O)c1; NMeR = CN[C@@H](CCCNC(=N)N)C(=O)O; NMeF = CN[C@@H](Cc1ccccc1)C(=O)O; dHyp = O=C(O)[C@H]1C[C@H](O)CN1; Carboxymethyl = O=C(O)C*; NMeA = CN[C@@H](C)C(=O)O; Orn = NCCC[C@H](N)C(=O)O; Dab = NCC[C@H](N)C(=O)O; Abu = CC[C@H](N)C(=O)O; Dap = NC[C@H](N)C(=O)O; Aib = CC(C)(N)C(=O)O; Sar = CNCC(=O)O
What follows are compounds tested against T1, human PD-1 (Jurkat-PD-1 cells) / PE-labeled human PD-L1-Ig (Homo sapiens, UniProt Q15116) (assay: Jurkat-PD-1 Cell Binding High-Content Screening Assay (CBA); Jurkat hPD1-PDL1 assay). Conditions: Jurkat cell line over-expressing human PD-1; PE-labeled PD-L1-Ig 20 nM final; compound incubated 2 hours at 37° C.; read-out: Jurkat HPD1-PDL1 IC50.
T1 construct: expressed in transfected cells; host or cells: Jurkat cell line over-expressing human PD-1
T1 sequence (Q15116 25-288): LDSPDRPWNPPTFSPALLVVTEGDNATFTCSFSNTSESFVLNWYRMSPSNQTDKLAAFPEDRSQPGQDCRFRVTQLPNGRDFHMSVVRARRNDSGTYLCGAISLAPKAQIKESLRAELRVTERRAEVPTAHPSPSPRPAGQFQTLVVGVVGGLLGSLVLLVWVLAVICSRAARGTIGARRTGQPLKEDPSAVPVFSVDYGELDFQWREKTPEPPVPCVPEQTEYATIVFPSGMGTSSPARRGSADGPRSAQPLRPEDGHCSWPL
Procedure, shortened: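 Jurkat cells over-expressing human PD-1, seeded in DMEM with 10% fetal calf serum, were preincubated with compound for 2 hours at 37° C. PE-labeled human PD-L1-Ig was then added at 20 nM final, and cell-bound fluorescence was read by high-content imaging.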
Work on `CC(C)C[C@@H]1NC(=O)[C@H](C)NC(=O)CN(C)C(=O)[C@H](C)N(C)C(=O)[C@H](CCC(=O)O)NC(=O)[C@H](Cc2ccc(-c3ccccc3)cc2)NC(=O)[C@H](CC(C)C)NC(=O)[C@H](Cc2c[nH]c3ccccc23)NC(=O)[C@H](CC(=O)O)NC(=O)[C@H](Cc2ccc(O)cc2)NC(=O)[C@H](Cc2ccccc2)NC(=O)CSC[C@@H](C(=O)N[C@@H](C)C(N)=O)NC(=O)[C@H](CO)NC(=O)[C@H](C(C)C)NC1=O` [Example 1164] ({CH2CO}-FYDWL[Bip]E[NMeA][Sar]ALVSCA-NH2; thioether N-14) yielded an IC50 of 900 nM.
In the case of `CC(C)C[C@@H]1NC(=O)[C@H](Cc2c[nH]c3ccccc23)NC(=O)[C@H](CC(=O)O)NC(=O)[C@H](Cc2ccc(O)cc2)NC(=O)[C@H](Cc2ccccc2)NC(=O)CSC[C@@H](C(=O)NCC(N)=O)NC(=O)[C@H](CC(N)=O)NC(=O)[C@H](C(C)C)NC(=O)[C@H](CC(C)C)NC(=O)[C@H](CC(N)=O)NC(=O)CN(C)C(=O)[C@H](C)N(C)C(=O)[C@H](C(C)C)NC(=O)[C@H](Cc2ccc(-c3ccccc3)cc2)NC1=O` [Example 1228] ({CH2CO}-FYDWL[Bip]V[NMeA][Sar]NLVNCG-NH2; thioether N-14), the IC50 is reported as 720 nM.
`CC(C)C[C@@H]1NC(=O)[C@H](CC(N)=O)NC(=O)CN(C)C(=O)[C@H](C)N(C)C(=O)[C@H](C(C)C)NC(=O)[C@H](Cc2ccc(-c3ccccc3)cc2)NC(=O)[C@H](C(C)C)NC(=O)[C@H](Cc2c[nH]c3ccccc23)NC(=O)[C@H](CC(=O)O)NC(=O)[C@H](Cc2ccc(O)cc2)NC(=O)[C@H](Cc2ccccc2)NC(=O)CSC[C@@H](C(=O)NCC(N)=O)NC(=O)[C@H](CO)NC(=O)[C@H](C(C)C)NC1=O` [Example 1202] ({CH2CO}-FYDWV[Bip]V[NMeA][Sar]NLVSCG-NH2; thioether N-14) gave an IC50 of 80 nM.
With `Cc1cccc(C[C@@H]2NC(=O)[C@H](CC(=O)O)NC(=O)[C@H](Cc3ccc(OCC(=O)O)cc3)NC(=O)[C@H](Cc3ccc(OCC(=O)O)cc3)NC(=O)CSC[C@@H](C(=O)N[C@@H](C)C(N)=O)NC(=O)[C@H](CO)NC(=O)[C@H](C(C)C)NC(=O)[C@H](CC(C)C)NC(=O)[C@H](CC(N)=O)NC(=O)[C@H]3CCCN3C(=O)[C@H](C)N(C)C(=O)[C@H](C(C)C)NC(=O)[C@H](Cc3ccc(-c4ccccc4)cc3)NC(=O)[C@H](CC(C)C)NC2=O)c1` [Example 1437] ({CH2CO}-Y(Carboxymethyl)Y(Carboxymethyl)D[Phe(3-Me)]L[Bip]V[NMeA][dP]NLVSCA-NH2; thioether N-14) the IC50 was 30 nM.
With `CC(C)C[C@@H]1NC(=O)[C@H](CCCNC(=N)N)NC(=O)[C@H](Cc2ccccc2)N(C)C(=O)[C@H](C)N(C)C(=O)[C@H](CCCNC(=N)N)NC(=O)[C@H](Cc2ccc(-c3ccccc3)cc2)NC(=O)[C@H](C(C)C)NC(=O)[C@H](Cc2c[nH]c3ccccc23)NC(=O)[C@H](CC(=O)O)NC(=O)[C@H](Cc2ccc(O)cc2)NC(=O)[C@H](Cc2ccccc2)NC(=O)CSC[C@@H](C(=O)NC(C)(C)C(N)=O)NC(=O)[C@H](CO)NC(=O)[C@H](C(C)C)NC1=O` [Example 1328] ({CH2CO}-FYDWV[Bip]R[NMeA][NMeF]RLVSC[Aib]-NH2; thioether N-14) the IC50 was 480 nM.
Work on `CC[C@@H]1NC(=O)[C@H](Cc2ccc(-c3ccccc3)cc2)NC(=O)[C@H](CC(C)C)NC(=O)[C@H](Cc2c[nH]c3ccccc23)NC(=O)[C@H](CC(=O)O)NC(=O)[C@H](Cc2ccc(O)cc2)NC(=O)[C@H](Cc2ccccc2)NC(=O)CSC[C@@H](C(=O)NCC(N)=O)NC(=O)[C@H](CO)NC(=O)[C@H](C(C)C)NC(=O)[C@H](CC(C)C)NC(=O)[C@H](CCCNC(=N)N)NC(=O)CN(C)C(=O)[C@H](CCCNC(=N)N)N(C)C1=O` [Example 1234] ({CH2CO}-FYDWL[Bip][Abu][NMeR][Sar]RLVSCG-NH2; thioether N-14) yielded an IC50 of 290 nM.
Compound `CC(C)C[C@@H]1NC(=O)[C@H](Cc2c[nH]c3ccccc23)NC(=O)[C@H](CC(=O)O)NC(=O)[C@H](Cc2ccc(O)cc2)NC(=O)[C@H](Cc2cc(F)c(F)c(F)c2)NC(=O)CSC[C@@H](C(=O)NCC(N)=O)NC(=O)[C@H](CO)NC(=O)[C@H](C(C)C)NC(=O)[C@H](CC(C)C)NC(=O)[C@H](CC(N)=O)NC(=O)CN(C)C(=O)[C@H](C)N(C)C(=O)[C@H](C(C)C)NC(=O)[C@H](Cc2ccc(-c3ccccc3)cc2)NC1=O` [Example 1098] ({CH2CO}-[Phe(3,4,5-F3)]YDWL[Bip]V[NMeA][Sar]NLVSCG-NH2; thioether N-14) has an IC50 of 310 nM.
`CC(C)C[C@@H]1NC(=O)[C@H](CC(C)C)NC(=O)[C@H](CCCNC(=N)N)NC(=O)[C@H](Cc2ccccc2)N(C)C(=O)[C@H](C)N(C)C(=O)[C@H](CCCNC(=N)N)NC(=O)[C@H](Cc2ccc(-c3ccccc3)cc2)NC(=O)[C@H](C(C)C)NC(=O)[C@H](Cc2c[nH]c3ccccc23)NC(=O)[C@H](CC(=O)O)NC(=O)[C@H](Cc2ccc(O)cc2)NC(=O)[C@H](Cc2ccccc2)NC(=O)CSC[C@@H](C(=O)NCC(N)=O)NC(=O)[C@H](CO)NC1=O` [Example 1325] ({CH2CO}-FYDWV[Bip]R[NMeA][NMeF]RLLSCG-NH2; thioether N-14) showed an IC50 of 590 nM.
With `CC(C)C[C@@H]1NC(=O)[C@H](CCCNC(=N)N)NC(=O)CN(C)C(=O)[C@H](C)N(C)C(=O)[C@H](C(C)C)NC(=O)[C@H](Cc2ccc(-c3ccccc3)cc2)NC(=O)[C@H](C(C)C)NC(=O)[C@H](Cc2c[nH]c3ccccc23)NC(=O)[C@H](CC(=O)O)NC(=O)[C@H](Cc2ccc(O)cc2)NC(=O)[C@H](Cc2ccccc2)NC(=O)CSC[C@@H](C(=O)NCC(N)=O)NC(=O)[C@H](CO)NC(=O)[C@H](C(C)C)NC1=O` [Example 1230] ({CH2CO}-FYDWV[Bip]V[NMeA][Sar]RLVSCG-NH2; thioether N-14) the IC50 was 60 nM.
Work on `CC(C)C[C@@H]1NC(=O)[C@H](Cc2c[nH]c3ccccc23)NC(=O)[C@H](CC(=O)O)NC(=O)[C@H](Cc2cccc(Br)c2)NC(=O)[C@H](Cc2ccccc2)NC(=O)CSC[C@@H](C(=O)N[C@@H](C)C(N)=O)NC(=O)[C@H](CO)NC(=O)[C@H](C(C)C)NC(=O)[C@H](CC(C)C)NC(=O)[C@H](CC(N)=O)NC(=O)[C@H]2CCCN2C(=O)[C@H](C)N(C)C(=O)[C@H](C(C)C)NC(=O)[C@H](Cc2ccc(-c3ccccc3)cc2)NC1=O` [Example 1065] ({CH2CO}-F[Phe(3-Br)]DWL[Bip]V[NMeA][dP]NLVSCA-NH2; thioether N-14) yielded an IC50 of 120 nM.
`CC(C)C[C@@H]1NC(=O)[C@H](Cc2c[nH]c3ccccc23)NC(=O)[C@H](CC(=O)O)NC(=O)[C@H](Cc2ccc(O)cc2)NC(=O)[C@H](Cc2ccccc2)NC(=O)CSC[C@@H](C(=O)N[C@@H](C)C(N)=O)NC(=O)[C@H](CO)NC(=O)[C@H](C(C)C)NC(=O)[C@H](CC(C)C)NC(=O)[C@H](CC(N)=O)NC(=O)[C@H]2CCCN2C(=O)[C@H](CCCN)NC(=O)[C@H](C(C)C)NC(=O)[C@H](Cc2ccc(-c3ccccc3)cc2)NC1=O` [Example 1200] ({CH2CO}-FYDWL[Bip]V[Orn][dP]NLVSCA-NH2; thioether N-14) was tested, and the IC50 was 30 nM.
`CC(C)C[C@@H]1NC(=O)[C@H](Cc2c[nH]c3ccccc23)NC(=O)[C@H](CC(=O)O)NC(=O)[C@H](Cc2ccc(O)cc2)NC(=O)[C@H](Cc2ccccc2)NC(=O)CSC[C@@H](C(=O)NCC(N)=O)NC(=O)[C@H](CO)NC(=O)[C@H](C(C)C)NC(=O)[C@H](CC(C)C)NC(=O)[C@H](CCN)NC(=O)CN(C)C(=O)[C@H](C)N(C)C(=O)[C@H](C(C)C)NC(=O)[C@H](Cc2ccc(-c3ccccc3)cc2)NC1=O` [Example 1069] ({CH2CO}-FYDWL[Bip]V[NMeA][Sar][Dab]LVSCG-NH2; thioether N-14) was tested, and the IC50 was 160 nM.
`CC(C)C[C@@H]1NC(=O)[C@H](CCN)NC(=O)[C@H](Cc2ccccc2)N(C)C(=O)[C@H](C)N(C)C(=O)[C@H](CCC(=O)O)NC(=O)[C@H](Cc2ccc(-c3ccccc3)cc2)NC(=O)[C@H](C(C)C)NC(=O)[C@H](Cc2c[nH]c3ccccc23)NC(=O)[C@H](CC(=O)O)NC(=O)[C@H](Cc2ccc(O)cc2)NC(=O)[C@H](Cc2ccccc2)NC(=O)CSC[C@@H](C(=O)N[C@@H](CCC(=O)O)C(N)=O)NC(=O)[C@H]([C@@H](C)O)NC(=O)[C@H](C(C)C)NC1=O` [Example 1343] ({CH2CO}-FYDWV[Bip]E[NMeA][NMeF][Dab]LVTCE-NH2; thioether N-14) was tested, and the IC50 was 370 nM.
For `CC(C)C[C@@H]1NC(=O)[C@H](Cc2c[nH]c3ccccc23)NC(=O)[C@H](CC(=O)O)NC(=O)[C@H](Cc2ccc(O)cc2)NC(=O)[C@H](CC(N)=O)NC(=O)CSC[C@@H](C(=O)N[C@@H](C)C(N)=O)NC(=O)[C@H]([C@@H](C)O)NC(=O)[C@H](C(C)C)NC(=O)[C@H](CC(C)C)NC(=O)[C@H](CCN)NC(=O)[C@H]2CCCN2C(=O)[C@H](CCCN)NC(=O)[C@H](C(C)C)NC(=O)[C@H](Cc2ccc(-c3ccccc3)cc2)NC1=O` [Example 1402] ({CH2CO}-NYDWL[Bip]V[Orn][dP][Dab]LVTCA-NH2; thioether N-14), the IC50 was 260 nM.
For `CC(C)C[C@@H]1NC(=O)[C@H](Cc2c[nH]c3ccccc23)NC(=O)[C@H](CC(=O)O)NC(=O)[C@H](Cc2ccc(O)cc2)NC(=O)[C@H](Cc2ccccc2)NC(=O)CSC[C@@H](C(=O)N[C@@H](C)C(N)=O)NC(=O)[C@H](CO)NC(=O)[C@H](C(C)C)NC(=O)[C@H](CC(C)C)NC(=O)[C@H](CC(N)=O)NC(=O)[C@H]2C[C@H](O)CN2C(=O)[C@H](C)N(C)C(=O)[C@H](C(C)C)NC(=O)[C@H](Cc2ccc(-c3ccccc3)cc2)NC1=O` [Example 1054] ({CH2CO}-FYDWL[Bip]V[NMeA][dHyp]NLVSCA-NH2; thioether N-14), the IC50 was 120 nM.
In the case of `CC(C)C[C@@H]1NC(=O)[C@H](Cc2c[nH]c3ccccc23)NC(=O)[C@H](CC(=O)O)NC(=O)[C@H](Cc2ccc(O)cc2)NC(=O)[C@H](Cc2ccccc2)NC(=O)CSC[C@@H](C(=O)NCC(N)=O)NC(=O)[C@H](CO)NC(=O)[C@H](C(C)C)NC(=O)[C@H](CC(C)C)NC(=O)[C@H](CCN)NC(=O)[C@H]2CCCN2C(=O)[C@H](CN)NC(=O)[C@H](C(C)C)NC(=O)[C@H](Cc2ccc(-c3ccccc3)cc2)NC1=O` [Example 1410] ({CH2CO}-FYDWL[Bip]V[Dap][dP][Dab]LVSCG-NH2; thioether N-14), the IC50 is reported as 140 nM.

From patent US20240360178A1, “MACROCYCLIC IMMUNOMODULATORS” (Bristol-Myers Squibb Company, priority 2021, published 2024)
